A short description of data set [1]: Effect of water content on solubility (formulations F1-F3). Format: physicochemical. Here is the method:
Increasing amounts of PVP and Poloxamer were added to compositions F1-F3 to inhibit rapid precipitation upon dilution in water.
The solutions were then cooled to ambient room temperature and mixed for ˜4 hours prior to filtering and being evaluated by an assay.

Data set [2] is described as follows: Nasal solution solubility evaluation in solvent/co-solvent systems (HPLC-UV). Format: physicochemical. To be noted: organic solvent or mixture, thermodynamic from solid; Caprylocaproyl Polyoxylglycerides (Labrasol ALF), Composition 8. The procedure:
The solvents were chosen from a group consisting of Caprylocaproyl Polyoxylglycerides (Labrasol ALF), propylene glycol, PEG-400, vitamin E TPGS, ethanol, water, and any combination thereof.
50 g stock solutions of each solvent system were prepared. The active solutions 3.0 mL of each solvent was aliquoted to separate 8 mL clear glass vials. […] Every 30 minutes the solutions were inspected. […] This process was repeated until visible saturation of all solvent systems was obtained. Prior to analysis, the samples were centrifuged at 5,000 RPM for 3 minutes and filtered through a 0.45 μm nylon syringe filter to remove excess solids.
The dose calculations included in Table 42 are based on 75% of the concentration at saturation. This is to reduce the risk of precipitation/crystallization due to environmental fluctuations. Additionally, two dose volumes (0.2/0.5 mL) were selected in accordance with the standard range for nasal delivery. The total dose illustrated is based on the equivalent volume delivered to each nostril, 0.4-1.0 mL total per dose.

Data set [3] is described as follows: Solubility in 1:1 mixture of Gelucire 44/14 and Span 80 (tablet solubilizer). The class given is physicochemical. The procedure: After successful completion of the dry blend tablet formulation, efforts were made to attempt to enhance solubilization of the drug. Upon successful creation of the tablet prototype batch A, the tablet prototype batch B was developed wherein Bumetanide Dibenzylamide solubilizers were incorporated directly into the dry blend tablet formulation. […] The 1:1 ratio of Lauroyl Polyoxyl-32 Glycerides (Gelucire 44/14), to Sorbitan Ester (Span 80), was determined by combined melting point, taste, viscosity, and solubilizing ability. The ratio provided a semi-solid, which may be liquefied upon application of low heat. […] This mixture was kept under constant stirring to ensure complete even dispersal of ingredients. Continuing under constant heating and mixing, Neusilin US2 (Magnesium Aluminometasilicate) was slowly added to adsorb the viscous mixture onto its particles rough surface. Upon complete adsorption the heat was removed with continued mixing until room temperature was reached. The cooled, hot-melt granulation was then sieved and blended with sieved Polyplasdone XL (Super Disintegrate), Cabosil M5P (fumed silica), and Citric Acid Monohydrate, and Magnesium Stearate. Table 58 illustrates the formulation employed for a sublingual tablet prototype batch B, which was utilized for canine studies. […]

A short description of data set [4]: Prototype capsule (SEDDS) development: solubilization and dispersion test in water. The class given is physicochemical. The following applies: capsule compositions with long chain triglycerides and 0 to 4.68% w/w ethanol. The procedure: Prototype capsule formulations were developed at a less than 2-gram scale. […] The oil phase was then added to the formulations and stirred until the solution became clear. The solutions were cooled to room temperature while stirring and co-solvent was then added (if applicable).
To test if the composition created macro-dispersions or micro-dispersions, about 30 mg of formulation was added into 1.0 g of water and lightly swirled. The resultant dispersion was visually characterized. SEDDS (macroemulsions) are typically characterized as an opaque milky white uniform liquid, and SEDDS (microemulsions) are characterized by a clear, isotropic, transparent solution with opalescence. […] Compositions 4 and 6 were selected for future development work, and the intermediate stability of those compositions was evaluated as described below.

Data set [5] is described as follows: Solubility at 50° C. in common SEDDS excipients by visual inspection. Format: physicochemical.
Data set [6] can be described thus: in vitro. The following applies: human, Caco-2, pH 7.4, % Solution Recovery. Here is the method: Caco-2 cells purchased from ATCC were seeded onto […] (PET) in 96-well Corning Insert plates at 1×10^5 cells/cm^2, and refreshed medium every 4˜5 days until to the 21st to 28th day for confluent cell monolayer formation.
The transport buffer in the study was HBSS with 10.0 mM HEPES at pH 7.40±0.05. Test compound was tested at 2.00 μM bi-directionally in duplicate. Digoxin was tested at 10.0 μM bi-directionally in duplicate, while nadolol and metoprolol were tested at 2.00 μM in A to B direction in duplicate. Final DMSO concentration was adjusted to less than 1%. The plate was incubated for 2 hours in CO2 incubator at 37±1° C., with 5% CO2 at saturated humidity without shaking. And all samples after mixed with acetonitrile containing internal standard were centrifuged at 3200×g for 10 min. For nadolol and metoprolol, 200 μL supernatant solution was diluted with 600 μL ultra-pure water for LC-MS/MS analysis. For digoxin and test compounds, 200 μL supernatant solution was diluted with 200 μL ultra-pure water for LC-MS/MS analysis. Concentrations of test and control compounds in starting solution, donor solution, and receiver solution were quantified by LC-MS/MS methodologies, using peak area ratio of analyte/internal standard. After transport assay, lucifer yellow rejection assay was applied to determine the Caco-2 cell monolayer integrity.
The apparent permeability coefficient Papp (cm/s) was calculated using the equation: […]
Where dCp/dt is the cumulative concentration of compound in the receiver chamber as a function of time (μM/s); Vr is the solution volume in the receiver chamber (0.075 mL on the apical side, 0.25 mL on the basolateral side); A is the surface area for the transport, i.e. 0.0804 cm^2 for the area of the monolayer; Co is the initial concentration in the donor chamber (μM). The efflux ratio was calculated using the equation: […]
Percent recovery was calculated using the equation: […]
Where Vd is the volume in the donor chambers (0.075 mL on the apical side, 0.25 mL on the basolateral side); Ca and Cr are the final concentrations of transport compound in donor and receiver chambers, respectively.

Marks after values point to notes of the source that are not given here.

As usually defined, the solubility is the concentration that dissolves in the medium under given conditions. On to `CCCCNc1cc(C(=O)N(Cc2ccccc2)Cc2ccccc2)cc(S(N)(=O)=O)c1Oc1ccccc1` [Bumetanide Dibenzylamide, N, N-dibenzyl 3-aminosulfonyl-5-butylamino-4-phenoxybenzamide], for which the “maximum concentration of Bumetanide Dibenzylamide” value in data set [1] (rectal gel, about 20% water) was “about 2.4%”; in data set [1] (rectal paste, no water), “about 4.16%”. Also, the solubility at 8 h in data set [2] was roughly 66 mg/mL. The solubility entry in data set [3] is given as “approximately 500 mg/g”. Besides, the “maximum solubility of Bumetanide Dibenzylamide” value in data set [4] is reported as “about 1.8 % w/w”. Also, the “Bumetanide Dibenzylamide, in solution” value was <1* mg/ml in data set [5] (Captex 300 (Caprylic/Capric Triglyceride, Medium Chain Triglyceride), 50° C.); <1* mg/ml in data set [5] (Drakeol 6VR LT (Mineral Oil), 50° C.); 13.5 mg/mL in data set [5] (Kolliphor EL (Polyoxyl 35 castor oil), 50° C.); 3 mg/mL in data set [5] (Labrafac Lipophile WL 1349 (Medium Chain Triglyceride), 50° C.); 4.5 mg/mL in data set [5] (Labrafil M 1944CS (Oleoyl polyoxyl 1-6 glycerides), 50° C.); 63 mg/mL in data set [5] (Labrasol ALF (Caprylocaproyl Polyoxylglycerides), 50° C.). For the same compound, the “Bumetanide Dibenzylamide, in solution” value in data set [5] (Lauroyl Plyoxyl-32 Glycerides (Gelucire 44/14), 50° C.) was 106 mg/mL; in data set [5] (Oleic Acid, 50° C.), <1* mg/ml; in data set [5] (Oleyl Alcohol, 50° C.) it was <1* mg/ml; in data set [5] (Polyethylene Glycol 400, 50° C.), 8.6 mg/mL; in data set [5] (Propylene Glycol, 50° C.), 2 mg/mL; in data set [5] (Sorbitan Ester (Span 80), 50° C.) it was 250 mg/mL. The “Bumetanide Dibenzylamide, in solution” value in data set [5] (Soybean Oil, 50° C.) was found to be 2 mg/mL. Further, in data set [6], the recovery at 2 h, 2 μM was less than 50%.

For the origin of these results see US20250120932A1, “PHARMACEUTICAL COMPOSITION” (NEUROPRO THERAPEUTICS, INC., priority 2021, published 2025).
